Values quoted from earlier work as cited in US20180369136A1, “DEVICES AND METHODS FOR TRANSDERMAL TREATMENT OF BASAL CELL CARCINOMA” (NORTH CAROLINA STATE UNIVERSITY, priority 2015, published 2018).

What was measured:
yeast and bacteria cells = details: in vitro
[1] = system: immunosuppressed syngeneic mice; details: in vivo
[2] = system: basal cell carcinoma tumor; details: oral itraconazole
[3] = system: Hedgehog signaling in basal cell carcinoma; details: basal cell carcinoma in vitro model

Compound: O=c1[nH]cc(F)c(=O)[nH]1 [fluorouracil, 5-fluorouracil]
- mutagenicity (yeast and bacteria cells): causes mutations
- mutagenicity [1]: causes mutations

Compound: CCC(C)n1ncn(-c2ccc(N3CCN(c4ccc(OCC5COC(Cn6cncn6)(c6ccc(Cl)cc6Cl)O5)cc4)CC3)cc2)c1=O (stereo not drawn) [itraconazole]
- side effects [2]: grade 4 congestive heart failure
- solubility in ethanol and water (ethanol and water): poor solubility

Compound: C=C1CC[C@H](O)C/C1=C/C=C1\CCC[C@]2(C)[C@@H]([C@H](C)CCCC(C)C)CC[C@@H]12 [vitamin D3]
- Hedgehog signaling [3]: suppress Hedgehog signaling
- solubility in aqueous media (aqueous media): does not readily dissolve
